Laboratory results reported in US10183011B2, “Anti-depression compounds” (Board of Regents of the University of Texas System, priority 2009, dated 2019).
“And” between values parts separate entries of the source, which are not always exact repeats. Equal entries are not always repeated. “Also recorded” adds a separate entry of the source. Where two headings read alike, the source gives them in different places.

Tests used:
[1] = system: newborn neurons in the dentate gyrus; assay: BrdU pulse-chase and doublecortin staining with oral dosing for 30 days; type: in vivo, mouse (C57/B6)
Procedure: FIG. 10A and FIG. 10B: Example 45 Compound enhances the survival of newborn neurons in the dentate gyrus. […] (FIG. 10B) Example 45 Compound enhances hippocampal neurogenesis by promoting survival of newborn neurons. Three month old wild type C57/B6 male mice were exposed to orally-delivered Example 45 Compound or vehicle for 30 days (n=5 animals/group), administered a single pulse of BrdU via IP injection (150 mg/kg), and then sacrificed 1 hour, 1 day, 5 days or 30 days later for immunohistochemical detection of BrdU incorporation into cells localized in the subgranular layer of the dentate gyrus. […] In this longer-term trial, BrdU+ cells were observed both in the SGZ and the granular layer of the dentate gyrus.
The nature of the cells produced in the subgranular zone of the dentate gyrus was investigated when Example 45 Compound was administered as follows. Animals were exposed to oral administration of Example 45 Compound for 30 days. Brain tissue was then prepared for immunohistochemical staining with an antibody to doublecortin (DCX), a microtubule-associated protein that serves as a marker of neurogenesis in the dentate gyrus by virtue of transient expression in newly formed neurons, but not glial cells, between the timing of their birth and final maturation (Brown et al., 2003).
Example 45 Compound-mediated neurogenesis was next investigated to see whether it was attributable to increased cell proliferation or protection of newborn cells from cell death during the time between their birth and eventual incorporation into the granular layer of the dentate gyrus. This was accomplished by comparing the ability of Example 45 Compound to enhance either short- or long-term increases in the incorporation of BrdU in the dentate gyrus (FIG. 10B). Animals exposed to orally-delivered Example 45 Compound or vehicle for 30 days were administered a single pulse of BrdU via IP injection. Short-term effects on neuron birth were monitored by sacrificing animals one hour post-BrdU injection, followed by fixation of the tissue, sectioning and immunohistochemical detection of BrdU incorporation into cells localized in the subgranular layer of the dentate gyrus. […] It is hypothesized that these cells represent mature neurons that have migrated into the granular layer, completed the differentiation process, and incorporated themselves into the dentate gyrus as properly wired neurons. Observations supportive of this interpretation will be presented in a subsequent section of this document. In summary, these experiments give evidence that Example 45 Compound enhances the formation of neurons in the mature hippocampus, and that its mode of action would appear to take place at some point subsequent to their birth.

hippocampal neurogenesis = assay: Neurogenic efficacy of orally administered compound, dose response; type: in vivo, mouse; settings: for pro-neurogenic or neuroprotective efficacy, oral: daily oral gavage for 7 days
Excerpt: FIG. 7: Neurogenic efficacy of orally administered Example 45 Compound was dose-related. […] Results shown are the average obtained from analysis of 5 adult wild type male mice at each dose.
(§1) Pharmacokinetic analysis of Example 45 Compound in plasma and whole brain tissue was undertaken after single IV, IP and oral gavage administrations. […] These favorable pharmacological properties facilitated a dose response experiment wherein daily oral administration of Example 45 Compound to adult mice was monitored for both brain levels of the chemical and pro-neurogenic efficacy (FIG. 7).

[2] = system: cultured primary cortical neurons; assay: Mitochondrial membrane potential (TMRM) after A23187 in cultured primary cortical neurons; type: cell-based; settings: rat E14 cortical neurons
Excerpt: (§2) FIG. 23: Example 45 Compound Preserves Mitochondrial Membrane Potential in Cultured Primary Cortical Neurons. Cortical neurons cultures from rats on embryonic day 14 were loaded with tetramethylrhodamine methyl ester (TMRM) dye after 6 days of maturation. […] The remaining panels are from cells that were exposed to the calcium ionophore A23187 at time zero. With vehicle-alone, cortical neuron mitochondrial membrane potential was rapidly lost after exposure to the ionophore. […] Results shown are representative of 10 fields analyzed in each of 2 experimental runs for all conditions.
as §2, with “It was also examined whether” for “FIG. 23:”, “preserves mitochondrial membrane potential” for “Preserves Mitochondrial Membrane Potential”, “cultured primary cortical neurons (FIG. 23).” for “Cultured Primary Cortical Neurons.”

[3] = Pharmacokinetic analysis in plasma and whole brain tissue; type: in vivo, mouse; settings: for concentration at 5 h: brain, five hours after dosing, read-out: brain level
Excerpt: as §1

[4] = system: TH+ dopaminergic neurons in the substantia nigra; assay: MPTP model of Parkinson's disease, treatment before, during and after MPTP; type: in vivo, mouse (C57BL/6); settings: 10 mg/kg i.p. twice daily; MPTP 30 mg/kg/day for 5 days
Procedure: FIG. 25A and FIG. 25B. Example 6a Compound (P7C3A20) Provides Therapeutic Benefit in Animal Model of Parkinson's Disease. Mice were treated with MPTP (30 mg/kg i.p.) or Vehicle only for 5 days and then immunohistochemically analyzed for tyrosine hydroxylase staining (TH) 21 days later (FIG. 25A). Treatment with MPTP and Vehicle (n=6) reduced the number of TH+ neurons in the substantia nigra (FIG. 25B) by approximately 50% (*, p=0.0002, Student's t test) relative to mice that received Vehicle only (n=8). […] TH+ neurons in the substantia nigra of every mouse were counted blind to treatment group by two investigators using Image J software, and results were averaged.
MPTP (1-methyl-4-phenyl-1,2,3,6-tetrahydropyridine) is a potent neurotoxin that selectively kills dopaminergic neurons in the substantia nigra of both mice and monkeys, causing a clinical picture resembling PD. The MPTP toxicity model can therefore be used to study the death of dopaminergic neurons with the goal of developing new treatments for PD based on neuroprotective strategies found to be effective in these neurons. […] TH-positive cells were counted in the substantia nigra area.

With OC(CNc1ccccc1)Cn1c2ccc(Br)cc2c2cc(Br)ccc21 (stereo not drawn) [Example 45 Compound] the “doublecortin (DCX) staining of newborn neurons” value ([1]; 20 mg/kg daily for 30 days by oral gavage) was “increased dramatically; also recorded: substantially increased”, the “increase in BrdU+ cells compared to vehicle” value ([1]; 5 days after BrdU pulse) was 25% and the “increase in abundance of BrdU+ cells in the dentate gyrus relative to vehicle” value ([1]; daily oral dose for 30 days starting 24 hours after BrdU pulse) was 5 fold. For the same compound, the “BrdU+ cells versus vehicle, short term” value ([1]; oral for 30 days, 1 hour or 1 day after BrdU pulse) was “did not lead to an elevation in the level of BrdU-positive cells relative to vehicle; also recorded: No significant differences”, the “oral dose giving maximal pro-neurogenic efficacy” value (hippocampal neurogenesis; daily oral administration to adult mice) was at least 5 mg/kg and the “pro-neurogenic or neuroprotective efficacy, oral” value (hippocampal neurogenesis; doses 5 to 40 mg/kg) was “roughly double that of vehicle control”. For the same compound, the “pro-neurogenic or neuroprotective efficacy, oral” value (hippocampal neurogenesis; doses below 1.0 mg/kg) was “no greater than vehicle control”, the “dose giving full protection of mitochondrial membrane potential” value [2] was 1 mM and the concentration at 5 h ([3]; mouse, oral 1 mg/kg) was 213 nM and 101 ng/g. The concentration at 5 h ([3]; mouse, oral 2.5 mg/kg) was 1.13 µM and 534 ng/g, the concentration at 5 h ([3]; mouse, oral 5 mg/kg) was 1.35 µM and 640 ng/g and the half-life ([3]; mouse, plasma, after IP delivery, read-out: plasma terminal half life (converted)) was 6.7 h. For the same compound, the blood-brain barrier crossing ([3]; single IV, IP and oral gavage administrations) was “readily able to cross the blood-brain barrier” and the oral bioavailability ([3]; single oral gavage administration) was “orally bioavailable”.
For COc1cccc(NCC(F)Cn2c3ccc(Br)cc3c3cc(Br)ccc32)c1 (stereo not drawn) [Example P7C3A20, N-(3-(3,6-dibromo-9H-carbazol-9-yl)-2-fluoropropyl)-3-methoxyaniline], the “MPTP-mediated death of TH+ neurons in the substantia nigra” value [4] was “significantly attenuates MPTP-mediated killing of substantia nigra dopaminergic neurons; also recorded: significantly attenuated”.
